Reference: ChEMBL document CHEMBL1123770, “Systematic synthesis and biological evaluation of alpha- and beta-D-lyxofuranosyl nucleosides of the five naturally occurring nucleic acid bases” (1987)
In brackets after ≈: the same amount, converted by molar mass.

How the values were obtained:
[1] = test system: Vero; assay: Minimum inhibitory concentration (MIC) required to reduce virus-induced cytopathogenicity by 50% against Parainfluenza virus-3 in African green monkey kidney (Vero B)cells; type: functional, Chlorocebus sabaeus
[2] = species on record: Oryctolagus cuniculus; assay: Minimum inhibitory concentration (MIC) required to reduce virus-induced cytopathogenicity by 50% against G strain of Herpes simplex virus-2 in primary rabbit kidney cells; type: functional
[3] = test system: Vero; assay: Minimum inhibitory concentration (MIC) required to reduce virus-induced cytopathogenicity by 50% against Reo virus-1 in African green monkey kidney (Vero B)cells; type: functional, Chlorocebus sabaeus; conditions: Chlorocebus sabaeus; read-out: MIC
[4] = species on record: Oryctolagus cuniculus; assay: Minimum inhibitory concentration (MIC) required to reduce virus-induced cytopathogenicity by 50% against Vaccinia virus in primary rabbit kidney cells; type: functional
[5] = test system: HeLa; assay: Minimum cytotoxic concentration (MCC) required to cause a microscopically detectable alteration of host cell morphology, when incubated with HeLa cells; type: functional; conditions: Homo sapiens
[6] = test system: HeLa; assay: Minimum inhibitory concentration (MIC) required to reduce virus-induced cytopathogenicity by 50% against Coxsackie virus B4 in HeLa cells; type: functional; conditions: Homo sapiens
[7] = test system: Vero; assay: Minimum inhibitory concentration (MIC) required to reduce virus-induced cytopathogenicity by 50% against forest virus in African green monkey kidney (Vero B)cells; type: functional; conditions: Chlorocebus sabaeus
[8] = Minimum cytotoxic concentration (MCC) required to cause a microscopically detectable alteration of host cell morphology, when incubated with PRK cells; type: functional; conditions: Oryctolagus cuniculus
[9] = test system: WI-38; assay: Minimum inhibitory concentration (MIC) required to reduce virus-induced cytopathogenicity by 50% against Rhinovirus 9 in human diploid (WI-38)cells; type: functional; conditions: Homo sapiens; read-out: MIC
[10] = test system: WI-38; assay: Minimum cytotoxic concentration (MCC) required to cause a microscopically detectable alteration of host cell morphology, when incubated with WI-38 cells; type: functional; conditions: Homo sapiens
[11] = species on record: Oryctolagus cuniculus; assay: Minimum inhibitory concentration (MIC) required to reduce virus-induced cytopathogenicity by 50% against KOS strain of Herpes simplex virus-1 in primary rabbit kidney cells; type: functional
[12] = test system: Vero; assay: Minimum inhibitory concentration (MIC) required to reduce virus-induced cytopathogenicity by 50% against Coxsackie virus B4 in African green monkey kidney (Vero B)cells; type: functional, Chlorocebus sabaeus; conditions: Chlorocebus sabaeus; read-out: MIC
[13] = test system: Vero; assay: Minimum inhibitory concentration (MIC) required to reduce virus-induced cytopathogenicity by 50% against Sindbis virus in African green monkey kidney (Vero B)cells; type: functional; conditions: Chlorocebus sabaeus
[14] = test system: Vero; assay: Minimum cytotoxic concentration (MCC) required to cause a microscopically detectable alteration of host cell morphology, when incubated with Vero B cells; type: functional; conditions: Chlorocebus sabaeus
[15] = test system: WI-38; assay: Minimum inhibitory concentration (MIC) required to reduce virus-induced cytopathogenicity by 50% against Rhinovirus-1A in human diploid (WI-38)cells; type: functional
[16] = Inhibitory effect on KOS strain of Herper simplex virus-1 yield, in primary rabbit kidney cell culture at 400 ug/mL concentration after 24 hours; type: functional, Oryctolagus cuniculus
[17] = species on record: Mus musculus; assay: Number of mice dead after HSV-2 infection observed from day 12 to day 20; type: functional
[18] = Inhibitory effect on KOS strain of Herper simplex virus-1 yield, in primary rabbit kidney cell culture 40 ug/mL concentration after 48 hours.; type: functional, Oryctolagus cuniculus
[19] = species on record: Mus musculus; assay: Number of mice normal, without lesion after HSV-1 infection observed from day 12 to day 20; type: functional
[20] = species on record: Mus musculus; assay: Number of mice dead after HSV-1 infection observed from day 12 to day 20; type: functional
[21] = Inhibitory effect on KOS strain of Herper simplex virus-1 yield, in primary rabbit kidney cell culture at 100 ug/mL concentration after 24 hours; type: functional, Oryctolagus cuniculus
[22] = Inhibitory effect on 196 strain of Herper simplex virus-2 yield, in primary rabbit kidney cell culture 400 ug/mL concentration after 48 hours.; type: functional, Oryctolagus cuniculus
[23] = species on record: Mus musculus; assay: Survival rate at 20th day expressed as number of mice survived infected with HSV-1; out of 10; type: functional
[24] = Inhibitory effect on 196 strain of Herper simplex virus-2 yield, in primary rabbit kidney cell culture 40 ug/mL concentration after 24 hours.; type: functional, Oryctolagus cuniculus
[25] = species on record: Mus musculus; assay: Number of mice normal, without lesion after HSV-1 infection observed from day 0 to day 3; type: functional
[26] = Inhibitory effect on 196 strain of Herper simplex virus-2 yield, in primary rabbit kidney cell culture 400 ug/mL concentration after 24 hours.; type: functional, Oryctolagus cuniculus
[27] = species on record: Mus musculus; assay: Number of mice normal, without lesion after HSV-2 infection observed from day 0 to day 3; type: functional
[28] = Inhibitory effect on 196 strain of Herper simplex virus-2 yield, in primary rabbit kidney cell culture 100 ug/mL concentration after 48 hours.; type: functional, Oryctolagus cuniculus
[29] = Inhibitory effect on 196 strain of Herper simplex virus-2 yield, in primary rabbit kidney cell culture 40 ug/mL concentration after 48 hours.; type: functional, Oryctolagus cuniculus
[30] = Inhibitory effect on KOS strain of Herper simplex virus-1 yield, in primary rabbit kidney cell culture 400 ug/mL concentration after 48 hours.; type: functional, Oryctolagus cuniculus
[31] = species on record: Mus musculus; assay: Survival rate at 20th day expressed as number of mice survived infected with HSV-2; out of 10; type: functional
[32] = Inhibitory effect on KOS strain of Herper simplex virus-1 yield, in primary rabbit kidney cell culture 100 ug/mL concentration after 48 hours.; type: functional, Oryctolagus cuniculus
[33] = species on record: Mus musculus; assay: Number of mice normal, without lesion after HSV-2 infection observed from day 12 to day 20; type: functional
[34] = Inhibitory effect on KOS strain of Herper simplex virus-1 yield, in primary rabbit kidney cell culture at 40 ug/mL concentration after 24 hours; type: functional, Oryctolagus cuniculus
[35] = test system: WI-38 (Homo sapiens); assay: Minimum inhibitory concentration (MIC) required to reduce virus-induced cytopathogenicity by 50% against Rhinovirus-1A in human diploid (WI-38)cells
[36] = Inhibitory effect on 196 strain of Herper simplex virus-2 yield, in primary rabbit kidney cell culture 100 ug/mL concentration after 24 hours.; type: functional, Oryctolagus cuniculus
[37] = species on record: Oryctolagus cuniculus; assay: Minimum inhibitory concentration (MIC) required to reduce virus-induced cytopathogenicity by 50% against Vesicular stomatitis virus in primary rabbit kidney cells; type: functional
[38] = test system: HeLa; assay: Minimum inhibitory concentration (MIC) required to reduce virus-induced cytopathogenicity by 50% against Polio virus-1 in HeLa cells; type: functional; conditions: Homo sapiens
[39] = test system: HeLa; assay: Minimum inhibitory concentration (MIC) required to reduce virus-induced cytopathogenicity by 50% against Vesicular stomatitis virus in HeLa cells; type: functional; conditions: Homo sapiens
[40] = Chlorocebus sabaeus, read-out: MIC
[41] = Oryctolagus cuniculus, read-out: MIC

Nc1ccn([C@@H]2O[C@H](CO)[C@H](O)[C@@H]2O)c(=O)n1
MIC [1, 40]: > 100 µg/mL | MIC [2, 41]: > 200 µg/mL | MIC [3]: > 200 µg/mL | MIC [4, 41]: 70 µg/mL (≈ 288 µM) | MCC [5]: > 200 µg/mL | MIC [6]: > 200 µg/mL | MIC [7]: > 200 µg/mL | MCC [8]: > 200 µg/mL | MIC [9]: > 200 µg/mL | MCC [10]: > 200 µg/mL | MIC [11]: > 200 µg/mL | MIC [12]: > 200 µg/mL | MIC [13]: > 100 µg/mL | MCC [14]: > 200 µg/mL | MIC [15]: > 200 µg/mL

O=c1ccn([C@H]2O[C@H](CO)[C@H](O)[C@@H]2O)c(=O)[nH]1
MIC [1, 40]: > 400 µg/mL | MIC [2, 41]: > 400 µg/mL | MIC [3]: > 200 µg/mL | MCC [5]: > 400 µg/mL | MIC [6]: > 400 µg/mL | MIC [7]: > 400 µg/mL | MCC [8]: > 400 µg/mL | MIC [9]: > 400 µg/mL | MCC [10]: > 400 µg/mL | MIC [11]: > 400 µg/mL | MIC [12]: > 400 µg/mL | MIC [13]: > 400 µg/mL | MCC [14]: > 400 µg/mL | MIC [15]: > 400 µg/mL

Nc1ncnc2c1ncn2[C@@H]1O[C@H](CO)[C@H](O)[C@@H]1O (stereo in doubt; 8)
MIC [1]: 70 µg/mL (≈ 262 µM) | Virus yield [16]: 6.2 log pfu ml-1 | MIC [2]: 100 µg/mL (≈ 374 µM) | No. of mice [17]: 7 | MIC [3]: > 400 µg/mL | Virus yield [18]: 7 log pfu ml-1 | MIC [4]: 70 µg/mL (≈ 262 µM) | MCC [5]: > 400 µg/mL | MIC [6]: > 400 µg/mL | No. of mice [19]: 4 | MIC [7]: > 400 µg/mL | No. of mice [20]: 6 | Virus yield [21]: 6.8 log pfu ml-1 | MCC [8]: > 400 µg/mL | Virus yield [22]: 5.1 log pfu ml-1 | Survival rate [23]: 4 | MIC [9]: > 200 µg/mL | Virus yield [24]: 5.4 log pfu ml-1 | No. of mice [25]: 10 | MCC [10]: > 400 µg/mL | Virus yield [26]: 3.8 log pfu ml-1 | No. of mice [27]: 10 | Virus yield [28]: 5.3 log pfu ml-1 | MIC [11]: > 400 µg/mL | Virus yield [29]: 5.5 log pfu ml-1 | Virus yield [30]: 6.6 log pfu ml-1 | MIC [12]: 70 µg/mL (≈ 262 µM) | Survival rate [31]: 3 | Virus yield [32]: 6.7 log pfu ml-1 | No. of mice [33]: 3 | MIC [13]: > 400 µg/mL | MCC [14]: > 400 µg/mL | Virus yield [34]: 6.8 log pfu ml-1 | MIC [35]: > 200 µg/mL | Virus yield [36]: 5.1 log pfu ml-1

Nc1nc2c(ncn2[C@@H]2O[C@H](CO)[C@H](O)[C@@H]2O)c(=O)[nH]1
MIC [1, 40]: > 400 µg/mL | MIC [2, 41]: 400 µg/mL (≈ 1410 µM) | MIC [3]: > 400 µg/mL | MIC [4, 41]: 100 µg/mL (≈ 353 µM) | MCC [5]: > 400 µg/mL | MIC [6]: > 400 µg/mL | MIC [7]: > 400 µg/mL | MCC [8]: > 400 µg/mL | MIC [9]: > 400 µg/mL | MCC [10]: > 400 µg/mL | MIC [11]: > 400 µg/mL | MIC [12]: > 400 µg/mL | MIC [13]: > 400 µg/mL | MCC [14]: > 400 µg/mL | MIC [15]: > 400 µg/mL

Nc1ncnc2c1ccn2[C@@H]1O[C@H](CO)[C@@H](O)[C@H]1O [TUBERCIDIN]
MIC [1, 40]: > 0.1 µg/mL | MIC [37]: 0.07 µg/mL (≈ 0.263 µM) | MIC [2, 41]: > 0.4 µg/mL | MIC [3]: > 0.1 µg/mL | MIC [4, 41]: 0.2 µg/mL (≈ 0.751 µM) | MCC [5]: > 1 µg/mL | MIC [6]: 0.2 µg/mL (≈ 0.751 µM) | MIC [7]: > 0.4 µg/mL | MCC [8]: 1 µg/mL | MIC [9]: > 4 µg/mL | MCC [10]: > 4 µg/mL | MIC [11]: > 0.4 µg/mL | MIC [38]: 0.07 µg/mL (≈ 0.263 µM) | MIC [39]: 0.07 µg/mL (≈ 0.263 µM) | MIC [12]: 0.2 µg/mL (≈ 0.751 µM) | MIC [13]: 0.2 µg/mL (≈ 0.751 µM) | MCC [14]: > 0.4 µg/mL | MIC [15]: 0.02 µg/mL (≈ 0.0751 µM)

NC(=O)c1ncn([C@@H]2O[C@H](CO)[C@@H](O)[C@H]2O)n1 [RIBAVIRIN]
MIC [1, 40]: 70 µg/mL (≈ 287 µM) | MIC [37]: 150 µg/mL (≈ 614 µM) | MIC [2, 41]: > 400 µg/mL | MIC [3]: 70 µg/mL (≈ 287 µM) | MIC [4, 41]: 20 µg/mL (≈ 81.9 µM) | MCC [5]: > 200 µg/mL | MIC [6]: 70 µg/mL (≈ 287 µM) | MIC [7]: > 400 µg/mL | MCC [8]: > 400 µg/mL | MIC [9]: > 400 µg/mL | MCC [10]: > 400 µg/mL | MIC [11]: > 400 µg/mL | MIC [38]: 70 µg/mL (≈ 287 µM) | MIC [39]: 20 µg/mL (≈ 81.9 µM) | MIC [12]: 10 µg/mL (≈ 40.9 µM) | MIC [13]: 70 µg/mL (≈ 287 µM) | MCC [14]: > 400 µg/mL | MIC [15]: 150 µg/mL (≈ 614 µM)
